Columns and labels:
Assay type in all cases: in vivo
Kochia scoparia = experiment: Greenhouse post-emergence herbicidal activity, KCHSC; conditions: scale 0 to 100
From the text: (§1) The culture containers used were plastic flowerpots containing loamy sand with approximately 3.0% of humus as the substrate. The seeds of the test plants were sown separately for each species.
(§2) For the post-emergence treatment, the test plants were first grown to a height of 3 to 15 cm, depending on the plant habit, and only then treated with the active ingredients which had been suspended or emulsified in water. For this purpose, the test plants were either sown directly and grown in the same containers, or they were first grown separately as seedlings and transplanted into the test containers a few days prior to treatment.
(§3) Depending on the species, the plants were kept at 10-25° C. or 20-35° C., respectively.
(§4) The test period extended over 2 to 4 weeks. During this time, the plants were tended, and their response to the individual treatments was evaluated.
(§5) Evaluation was carried out using a scale from 0 to 100. 100 means no emergence of the plants, or complete destruction of at least the aerial moieties, and 0 means no damage, or normal course of growth. A good herbicidal activity is given at values of at least 70 and a very good herbicidal activity is given at values of at least 85.

Zea mays = experiment: Greenhouse post-emergence herbicidal activity on crop ZEAMX (corn, maize); set-up: key: 0 = no damage/normal growth, 100 = no emergence or complete destruction
Outline: (§6)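 Post-emergence greenhouse test: plants in loamy sand (~3.0% humus) grown to 3-15 cm, then treated with active ingredient suspended or emulsified in water. Kept at 10-25° C or 20-35° C depending on species for 2 to 4 weeks; damage scored 0 (none) to 100 (complete destruction of aerial parts).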

Setaria faberi = experiment: Greenhouse post-emergence herbicidal activity, SETFA; conditions: 2 kg/ha, scale 0 to 100
From the text: as §1, §2, §3, §4, §5

Amaranthus retroflexus = experiment: Greenhouse post-emergence herbicidal activity, AMARE; conditions: AMARE; for pest or weed control at 2000 g/ha: 2 kg/ha, scale 0 to 100, read-out: Herbicidal activity
Outline: as §6

Digitaria sanguinalis = experiment: Greenhouse post-emergence herbicidal activity, DIGSA; conditions: scale 0 to 100
From the text: as §1, §2, §3, §4, §5

Oryza sativa = experiment: Greenhouse post-emergence herbicidal activity on crop ORYSA (rice)
Outline: as §6

Cirsium arvense = experiment: Greenhouse post-emergence herbicidal activity, CIRAR; conditions: CIRAR; for pest or weed control at 125 g/ha: 0.125 kg/ha
From the text: as §1, §2, §3, §4, §5

Chenopodium album = experiment: Greenhouse post-emergence herbicidal activity, CHEAL; conditions: scale 0 to 100; for pest or weed control at 31 g/ha: 0.031 kg/ha; for pest or weed control at 63 g/ha: 0.063 kg/ha
Outline: as §6

Ipomoea hederacea = experiment: Greenhouse post-emergence herbicidal activity, IPOHE; conditions: 0.031 kg/ha, scale 0 to 100
From the text: as §1, §2, §3, §4, §5

Ambrosia artemisiifolia = experiment: Greenhouse post-emergence herbicidal activity, AMBEL; conditions: scale 0 to 100
From the text: as §1, §2, §3, §4, §5

Veronica arvensis = experiment: Greenhouse post-emergence herbicidal activity, VERAR; conditions: 0.25 kg/ha, scale 0 to 100
From the text: as §1, §2, §3, §4, §5

Echinocloa crus-galli = experiment: Greenhouse post-emergence herbicidal activity, ECHCG; conditions: Echinochloa crus-galli, ECHCG
Outline: as §6

Abutilon theophrasti = experiment: Greenhouse post-emergence herbicidal activity, ABUTH; conditions: ABUTH
From the text: as §1, §2, §3, §4, §5

Erigeron canadensis = experiment: Greenhouse post-emergence herbicidal activity, ERICA
From the text: as §1, §2, §3, §4, §5

[1] = ZEAMX (corn, crop), 0.031 kg/ha, scale 0 to 100
[2] = ZEAMX (corn, crop), 0.063 kg/ha, scale 0 to 100
[3] = ZEAMX (corn, crop), 0.125 kg/ha, scale 0 to 100
[4] = ORYSA (rice, crop), 0.031 kg/ha, scale 0 to 100
[5] = ORYSA (rice, crop), 0.063 kg/ha, scale 0 to 100
[6] = ORYSA (rice, crop), 0.125 kg/ha, scale 0 to 100
[7] = 2 kg/ha, scale 0 to 100, read-out: Herbicidal activity

`CS(=O)(=O)Nc1ccc(Cl)c(C2=C(O)c3ncccc3CS2(=O)=O)c1Cl` [I-5, N-[2,4-dichloro-3-(8-hydroxy-6,6-dioxo-5H-thiopyrano[4,3-b]pyridin-7-yl)phenyl]methanesulfonamide] was tested. Which Herbicidal activity (Kochia scoparia; 0.031 kg/ha) did it give?
Its Herbicidal activity is 90.

And the Herbicidal activity (Kochia scoparia; 0.063 kg/ha)?
The Herbicidal activity was 95.

And the Herbicidal activity (Zea mays; [1])?
Its Herbicidal activity is 0.

What about the Herbicidal activity (Zea mays; [2]) of the same compound?
Its Herbicidal activity is 0.

What about the Herbicidal activity (Zea mays; [3]) of the same compound?
Its Herbicidal activity is 0.

What about the Herbicidal activity (Setaria faberi) of the same compound?
The Herbicidal activity was 100.

And the pest or weed control at 31 g/ha (Amaranthus retroflexus; 0.031 kg/ha, scale 0 to 100)?
The pest or weed control at 31 g/ha was 75%.

And the pest or weed control at 63 g/ha (Amaranthus retroflexus; 0.063 kg/ha, scale 0 to 100)?
Its pest or weed control at 63 g/ha is 95%.

And the pest or weed control at 125 g/ha (Amaranthus retroflexus; 0.125 kg/ha, scale 0 to 100)?
Its pest or weed control at 125 g/ha is 95%.

And the pest or weed control at 2000 g/ha (Amaranthus retroflexus)?
The pest or weed control at 2000 g/ha was 98%.

What about the Herbicidal activity (Digitaria sanguinalis; 0.063 kg/ha) of the same compound?
Its Herbicidal activity is 90.

What about the Herbicidal activity (Digitaria sanguinalis; 0.125 kg/ha) of the same compound?
The Herbicidal activity was 95.

And the Herbicidal activity (Oryza sativa; [4])?
The Herbicidal activity was 25.

What about the Herbicidal activity (Oryza sativa; [5]) of the same compound?
Its Herbicidal activity is 35.

What about the pest or weed control at 31 g/ha (Cirsium arvense; 0.031 kg/ha, scale 0 to 100) of the same compound?
The pest or weed control at 31 g/ha was 75%.

What about the pest or weed control at 125 g/ha (Cirsium arvense; scale 0 to 100) of the same compound?
The pest or weed control at 125 g/ha was 90%.

How did the Herbicidal activity (Zea mays; [1]) turn out when `CN(c1cccc(C2=C(OC(=O)C(C)(C)C)c3ncccc3C(C)(C)S2(=O)=O)c1Cl)S(C)(=O)=O` [I-16, [7-[2-chloro-3-[methyl(methylsulfonyl)amino]phenyl]-5,5-dimethyl-6,6-dioxo-thiopyrano[4,3-b]pyridin-8-yl] 2,2-dimethylpropanoate] was run?
The Herbicidal activity was 0.

What about the Herbicidal activity (Zea mays; [2]) of the same compound?
Its Herbicidal activity is 0.

What about the Herbicidal activity (Zea mays; [3]) of the same compound?
Its Herbicidal activity is 0.

What about the pest or weed control at 31 g/ha (Chenopodium album) of the same compound?
The pest or weed control at 31 g/ha was 95%.

And the pest or weed control at 63 g/ha (Chenopodium album)?
The pest or weed control at 63 g/ha was 98%.

What about the pest or weed control at 125 g/ha (Chenopodium album; 0.125 kg/ha) of the same compound?
The pest or weed control at 125 g/ha was 98%.

What about the pest or weed control at 250 g/ha (Chenopodium album; 0.25 kg/ha) of the same compound?
Its pest or weed control at 250 g/ha is 100%.

And the pest or weed control at 31 g/ha (Amaranthus retroflexus; 0.031 kg/ha, scale 0 to 100)?
The pest or weed control at 31 g/ha was 75%.

What about the pest or weed control at 125 g/ha (Amaranthus retroflexus; 0.125 kg/ha, scale 0 to 100) of the same compound?
The pest or weed control at 125 g/ha was 90%.

What about the Herbicidal activity (Ipomoea hederacea) of the same compound?
The Herbicidal activity was 70.

And the Herbicidal activity (Ambrosia artemisiifolia; 0.063 kg/ha)?
Its Herbicidal activity is 100.

What about the Herbicidal activity (Ambrosia artemisiifolia; 0.125 kg/ha) of the same compound?
The Herbicidal activity was 100.

What about the Herbicidal activity (Ambrosia artemisiifolia; 0.25 kg/ha) of the same compound?
The Herbicidal activity was 100.

What about the Herbicidal activity (Oryza sativa; [4]) of the same compound?
The Herbicidal activity was 0.

What about the Herbicidal activity (Oryza sativa; [5]) of the same compound?
Its Herbicidal activity is 0.

And the Herbicidal activity (Oryza sativa; [6])?
The Herbicidal activity was 0.

And the Herbicidal activity (Oryza sativa; ORYSA (rice, crop), 0.25 kg/ha, scale 0 to 100)?
Its Herbicidal activity is 0.

What about the pest or weed control at 63 g/ha (Cirsium arvense; 0.063 kg/ha, scale 0 to 100, read-out: Herbicidal activity) of the same compound?
The pest or weed control at 63 g/ha was 85%.

What about the Herbicidal activity (Veronica arvensis) of the same compound?
The Herbicidal activity was 100.

How did the pest or weed control at 31 g/ha (Chenopodium album) turn out when `CN(c1c(Cl)ccc(C2=C(O)c3ncccc3C(C)(C)S2(=O)=O)c1Cl)S(=O)(=O)CC1CC1` [I-21, 1-cyclopropyl-N-[2,6-dichloro-3-(8-hydroxy-5,5-dimethyl-6,6-dioxo-thiopyrano[4,3-b]pyridin-7-yl)phenyl]-N-methyl-methanesulfonamide] was run?
The pest or weed control at 31 g/ha was 95%.

What about the pest or weed control at 63 g/ha (Chenopodium album) of the same compound?
Its pest or weed control at 63 g/ha is 98%.

And the pest or weed control at 31 g/ha (Amaranthus retroflexus; 0.031 kg/ha, scale 0 to 100)?
Its pest or weed control at 31 g/ha is 98%.

And the pest or weed control at 63 g/ha (Amaranthus retroflexus; 0.063 kg/ha, scale 0 to 100)?
Its pest or weed control at 63 g/ha is 98%.

And the pest or weed control at 125 g/ha (Amaranthus retroflexus; 0.125 kg/ha, scale 0 to 100)?
The pest or weed control at 125 g/ha was 100%.

And the pest or weed control at 2000 g/ha (Amaranthus retroflexus)?
The pest or weed control at 2000 g/ha was 100%.

What about the pest or weed control at 31 g/ha (Echinocloa crus-galli; 0.031 kg/ha, scale 0 to 100) of the same compound?
Its pest or weed control at 31 g/ha is 98%.

What about the pest or weed control at 2000 g/ha (Echinocloa crus-galli; [7]) of the same compound?
Its pest or weed control at 2000 g/ha is 100%.

And the pest or weed control at 2000 g/ha (Abutilon theophrasti; [7])?
Its pest or weed control at 2000 g/ha is 100%.

And the Herbicidal activity (Erigeron canadensis; 0.063 kg/ha, scale 0 to 100)?
The Herbicidal activity was 100.

And the Herbicidal activity (Erigeron canadensis; 0.125 kg/ha, scale 0 to 100)?
Its Herbicidal activity is 100.

And the Herbicidal activity (Oryza sativa; [4])?
Its Herbicidal activity is 0.

And the Herbicidal activity (Oryza sativa; [5])?
The Herbicidal activity was 30.

What about the Herbicidal activity (Oryza sativa; [6]) of the same compound?
Its Herbicidal activity is 45.

What about the pest or weed control at 125 g/ha (Cirsium arvense; scale 0 to 100) of the same compound?
Its pest or weed control at 125 g/ha is 100%.

With `CN(c1c(Cl)ccc(C2=C(O)c3ncccc3C(C)(C)S2(=O)=O)c1C(F)(F)F)S(C)(=O)=O` [I-32, N-[6-chloro-3-(8-hydroxy-5,5-dimethyl-6,6-dioxo-thiopyrano[4,3-b]pyridin-7-yl)-2-(trifluoromethyl)phenyl]-N-methyl-methanesulfonamide] as the compound, how does the Herbicidal activity (Zea mays; crop ZEAMX (corn, maize), application rate 0.031 kg/ha) read?
The Herbicidal activity was 5.

What about the Herbicidal activity (Zea mays; crop ZEAMX (corn, maize), application rate 0.063 kg/ha) of the same compound?
Its Herbicidal activity is 5.

And the Herbicidal activity (Zea mays; crop ZEAMX (corn, maize), application rate 0.125 kg/ha)?
The Herbicidal activity was 15.

And the pest or weed control at 31 g/ha (Amaranthus retroflexus; application rate 0.031 kg/ha)?
The pest or weed control at 31 g/ha was 98%.

What about the pest or weed control at 63 g/ha (Amaranthus retroflexus; application rate 0.063 kg/ha) of the same compound?
Its pest or weed control at 63 g/ha is 98%.

What about the pest or weed control at 125 g/ha (Amaranthus retroflexus; application rate 0.125 kg/ha) of the same compound?
The pest or weed control at 125 g/ha was 98%.

And the pest or weed control at 250 g/ha (Amaranthus retroflexus; application rate 0.25 kg/ha)?
The pest or weed control at 250 g/ha was 98%.

What about the pest or weed control at 31 g/ha (Echinocloa crus-galli; application rate 0.031 kg/ha) of the same compound?
The pest or weed control at 31 g/ha was 90%.

And the pest or weed control at 63 g/ha (Echinocloa crus-galli; application rate 0.063 kg/ha)?
Its pest or weed control at 63 g/ha is 98%.

And the pest or weed control at 125 g/ha (Echinocloa crus-galli; application rate 0.125 kg/ha)?
The pest or weed control at 125 g/ha was 95%.

What about the pest or weed control at 31 g/ha (Abutilon theophrasti; application rate 0.031 kg/ha) of the same compound?
The pest or weed control at 31 g/ha was 95%.

And the pest or weed control at 63 g/ha (Abutilon theophrasti; application rate 0.063 kg/ha)?
Its pest or weed control at 63 g/ha is 90%.

What about the pest or weed control at 125 g/ha (Abutilon theophrasti; application rate 0.125 kg/ha) of the same compound?
Its pest or weed control at 125 g/ha is 95%.

And the pest or weed control at 250 g/ha (Abutilon theophrasti; application rate 0.25 kg/ha)?
Its pest or weed control at 250 g/ha is 98%.

And the Herbicidal activity (Erigeron canadensis; application rate 0.25 kg/ha)?
Its Herbicidal activity is 100.

And the Herbicidal activity (Oryza sativa; crop ORYSA (rice), application rate 0.25 kg/ha)?
Its Herbicidal activity is 30.

From US10023590B2, “Substituted pyridine compounds having herbicidal activity” (BASF SE, priority 2014, dated 2018)
